Assays:
[1] = test system: newly born neural precursor cells in hippocampal tissue slices; test: Immunohistochemical analysis of BrdU and subtype markers 4 weeks after oral administration (Experimental Example 2); assay type: in vivo, rat; parameters: Number of BrdU-positive cells and newly born dentate granular cells (DGCs) versus IBO group / Number of cells expressing both NeuN and BrdU versus ibotenic acid-administered group / Cholinergic neurons (total endogenous ChAT-positive cells) at 4 weeks versus 1 week after oral administration: dose or concentration left out as unconfirmed
Excerpt: In order to confirm the survival and differentiation of newly born neural precursor cells 4 weeks after the oral administration of soyasaponin I, it was observed whether the BrdU-expressing cells express a mature neuron marker and cell subtype markers (NeuN, VGluT1, GAD67) simultaneously.
After conducting the 3 behavioral tests, the rats were sacrificed for immunohistochemical analysis. Over 5 animals from each group were used for the immunohistochemical analysis.
Following the same procedure as described in (4) of Experimental Example 2, incubation was performed at 37° C. for 30 minutes in 2 N HCl after permeabilization in 0.5% Triton X-100 for 20 minutes for double staining of BrdU/subtype cell markers ([…], VGluT1, NeuN).
In the immunohistochemical analysis, the number of the cells immnunostained against each antibody was counted from 5 or 6 hippocampal coronal sections. For each staining analysis, every fifth cryosections of the hippocampal region of brain tissues (AP: bregma −4.5 to −4.3 mm) were taken for immunostaining. The number of the immnunostained cells was represented as an average of number of cells in the hippocampal region of one brain slice.
The number of the VGluT1- and GAD-positive cells in the brain slice samples 1 week and 4 weeks after the administration of soyasaponin I was presented per microscopic field (×400-VGluT1, ×800-GAD67) and the number of the ChAT-positive cells was presented per each hippocampal region (10-12 confocal laser microscopic fields). 5-11 animals were used per group. Western blotted membranes were analyzed using the multi-gauge, bio-imaging program on LAS-4000 Mini (Fujifilm Life Science, Stamford, Conn., USA). Densitometeric analysis of the expression ratios of VGluT1/β-actin, GAD65/67/β-actin and ChAT/β-actin was normalized to the vehicle group.

[2] = test system: BrdU-positive neural precursor cells in the hippocampal region; test: Immunohistochemical analysis of BrdU in hippocampus after soyasaponin I administration (Experimental Example 1); assay type: in vivo, rat
Protocol: After conducting the three behavioral tests, the rats were sacrificed for immunohistochemical analysis.
The brain slices of the test animals of the normal group (Sham), the IBO group and the Soya-I group were immunostained by the method of Heo H et al. (J Ethnopharmacol, 2009) with modifications. The rats were transcardially perfused with 4% PFA in PBS. Following fixation by immersing in 4% PFA in PBS for 3 hours, the brain tissues were cryoprotected in 30% sucrose in PBS, frozen with an optimal cutting temperature (OCT) compound and stored at −80° C.
The brain tissue blocks were cryosectioned through the coronal plane at a thickness of 35 μm. The brain tissue sections were stored at 4° C. in a storing solution (30% glycerol and 30% ethylene glycol in PBS). The stored brain slices were permeabilized in 0.5% Triton X-I00 for 20 minutes and incubated at 37° C. for 30 minutes in 2 N HCl. Then, they were blocked in 15% normal serum and 3% bovine serum albumin (BSA, bio-WORLD, Dublin, Ohio, USA) and 0.1% Triton X-100 for 2 hours under a free-floating condition.
The sections were incubated for 16 hours at 4° C. with primary antibodies against bromodeoxyuridine (BrdU) (Sigma). […]
In the immunohistochemical analysis, the number of the cells immnunostained against each antibody was counted from 5 or 6 hippocampal coronal sections. […]

[3] = 4 weeks after oral administration
[4] = soyasaponin I 10 mg/g group (so in the source), 4 weeks after oral administration
[5] = soyasaponin I group (so in the source), 4 weeks after oral administration

C[C@@H]1O[C@@H](O[C@H]2[C@H](O[C@H]3[C@H](O[C@H]4CC[C@@]5(C)[C@@H](CC[C@]6(C)[C@@H]5CC=C5[C@@H]7CC(C)(C)C[C@@H](O)[C@]7(C)CC[C@]56C)[C@@]4(C)CO)O[C@H](C(=O)O)[C@@H](O)[C@@H]3O)O[C@H](CO)[C@H](O)[C@@H]2O)[C@H](O)[C@H](O)[C@H]1O [soyasaponin I]
Number of BrdU-positive cells in hippocampal tissue slices at 4 weeks versus 1 week after oral administration [1, 3]: reduced to less than half
Ratio of the BrdU-positive cells that express VGluT1, NeuN or GAD67 at the same time [1, 3]: no significant difference
BrdU-positive cells among hippocampal cells expressing GFAP, TH and ChAT ([1]; 4 weeks after oral administration, any group): barely detected
Number of BrdU-positive cells expressing GAD67 versus IBO group [1, 4]: 2.8 times
Number of BrdU-positive cells expressing VGluT1 versus IBO group [1, 4]: higher
Cholinergic neurons (total endogenous ChAT-positive cells) at 4 weeks versus 1 week after oral administration ([1]; soyasaponin I group (so in the source)): maintained at a similar level
Number of BrdU-positive cells and newly born dentate granular cells (DGCs) versus IBO group [1, 5]: approximately 3.5 fold
Number of cells expressing both NeuN and BrdU versus ibotenic acid-administered group [1, 5]: 3 times
Dose with greatest rise in number of BrdU-positive cells ([2]; 10 mg/kg oral): largest increase
Number of BrdU-positive cells in the dentate gyrus of the hippocampus versus IBO ([2]; all doses (5, 10, 20 mg/kg) oral): increased significantly

— US20150307841A1, “Composition for Promoting Differentiation and Proliferation of Neural Stem Cell and Neural Precursor Cell” (priority 2014, published 2015)
